Measured values taken from patent publication US11730731B2 (INVENTAGE LAB INC., priority 2021, dated 2023).

Legend:
[1] = system: murine collagen-induced arthritis (CIA); assay: Imaging evaluation of arthritis using micro-CT, CIA mice; assay type: in vivo; details: Example 3, CIA mouse; MTX 1 mg/kg ip twice/week; Xeljanz 10 mg/kg oral once/day; MTX 1 mg/kg + Q-DDS 3 mg/mouse
Experimental: (§1) The radiographs were 3D rendered using the Quantum FX μCT imaging system (Perkin Elmer, MA), and then the radiological score was evaluated, and the bone volume ratio (Bone volume [BV]/Tissue volume [Tissue volume; TV]) and bone surface density (Bone surface area (BS)/Bone volume (BV)) were also measured. Two or more investigators performed blind evaluation for joint destruction, and the indicators in Table 17 below were used as the scoring criteria. The average value of the researchers' blind evaluation data was used as the score, and the average score of the paw tissue was calculated as the score of each group.
as §1, with “[BV]/Tissue” for “[BV]/Tissue volume [Tissue”, “TV)” for “TV])”, “(BV)), and cortical bone thickness” for “(BV))”, “researchers” for “investigators”, “above” for “below”

[2] = Safety assessment in vivo by body weight, CIA mice; details: Example 3, CIA mouse, MTX 1 mg/kg ip twice/week, Xeljanz 10 mg/kg oral once/day, MTX 1 mg/kg + Q-DDS 3 mg/mouse; for D23 body weight Mean: day 23 (baseline); for D41 body weight Mean: day 41; for Change of body weight (%, D23 body weight 100%) Mean: day 41 vs day 23
Experimental: The safety in vivo of the test substance was evaluated by measuring the body weight of mouse in each administration group of Example 4.1.
For the safety evaluation of the test substance, the body weight of mouse was measured daily from before the start of administration (The 23th day) to just before the end of administration (The 41th day), and the body weight (%) of the mouse for each administration group over the time (day) and the body weight on the 41th day were shown in FIG. 16A, FIG. 16B and Table 27.

[3] = system: inflammatory mediators in arthritis tissue (IL-1β, IL-6, IL-17, TNF-α, MCP-1, MIP-2, IL-2); assay: Multiplex protein immunoassay (Luminex multi-analyte-ELISA) of inflammatory mediators in arthritic tissue; assay type: in vivo, mouse; details: for ELISA values in Arthritis Paw, IL-1β, Mean / ELISA values in Arthritis Paw, IL-6, Mean / ELISA values in Arthritis Paw, IL-17, Mean / ELISA values in Arthritis Paw, TNF-α, Mean: CIA mice, Example 3, positive control groups (MTX, Xeljanz); for MCP-1, ELISA values in Arthritis Paw (pg/mL) Mean / MIP-2, ELISA values in Arthritis Paw (pg/mL) Mean: MTX 1 mg/kg ip twice/week, MTX 1 mg/kg + Q-DDS 3 mg/mouse
Text: In order to evaluate the inflammatory activity and confirm the mode of action of the test substance through quantitative analysis of inflammatory substances in mouse arthritis tissue and blood, inflammatory mediators were investigated at the protein level. In order to overcome the limitation of the amount of sample that can be extracted for protein analysis, a multi-analyte-ELISA (multi-analyte-ELISA) method based on Luminex technology was used to analyze the largest amount of protein in a small sample.
(§2) The mouse joint tissue obtained after treatment with the test substance in the method of Example 3.1 was pulverized through ceramic beads, and all proteins were extracted using a lysis buffer (Cat. 1713040111, Bio-Rad). Using Pro-reagent kit V, the same amount of protein (2.7 mg/mL) for each administration group was diluted ¼ and reacted with the target-binding beads in a culture dish for 30 minutes. After washing with a wash buffer, it was reacted with the target-measurement antibody for 30 minutes, and after washing with a wash buffer again, it was reacted with streptavidin-PE for 10 minutes. Thereafter, the target protein is quantitatively measured for each administration group using the Bio-Plex® 200 system (Bio-Rad). The target-binding beads were composed of a set that can be combined as needed from Bio-Plex Mouse cytokine 4-plex (IL-1β, IL-6, IL-17A, TNF-α; Cat. 171G5002M), Bio-Plex Pro Mouse Cytokine 1-plex (MCP1; Cat. 171G5019M), Bio-Plex Pro Mouse Cytokine II 1-plex (MIP2; Cat 171G6006M), and Bio-Plex Pro Mouse Cytokine 1-plea (IL-6; Cat. 171 G5007M) (all products are from Bio Rad) and were used for measurement.
For the measurement result, paw tissue weight of the mouse was corrected for the quantified target protein. For each target joint, the hind paw was mainly used, and in order to overcome the limitation of the amount of protein extracted from the joint tissue, up to 4 inflammatory mediators were measured in one well.
On the other hand, as the target protein to be measured, a representative inflammation-promoting cytokine group A (IL-1β, IL-6, IL-17, and TNF-α) among inflammatory mediators, and a chemokine group B (MCP-1 and MIP-2) among inflammatory mediators was selected to carry out the experiment. The measurement results were summarized in FIGS. 12A and 12B, and Tables 19 and 20 below. […]
as §2, with “4.1. above” for “3.1”, “171 G5002M),” for “171G5002M),”, “Cat. 171 G6006M),” for “Cat 171G6006M),”, “1-plex” for “1-plea”, “171G5007M)” for “171 G5007M)”
On the other hand, as the target protein to be measured, a representative inflammation-promoting cytokine group A (IL-1β, IL-6, IL-17, and TNF-α) among inflammatory mediators, and IL-2 and a chemokine group B (IL-2, MCP-1 and MIP-2) among inflammatory mediators were selected to carry out the experiment. The measurement results were summarized in FIGS. 18A and 18B, and Tables 29 and 30 below.

IL-6 = assay: Multiplex protein immunoassay of IL-6 in serum of CIA mice; assay type: in vivo, mouse; details: Example 3, positive control groups (MTX, Xeljanz)
Experimental: For the measurement result, paw tissue weight of the mouse was corrected for the quantified amount of IL-6 protein. For each target joint, the hind paw was mainly used, and in order to overcome the limitation of the amount of protein extracted from the joint tissue, up to 4 inflammatory mediators were measured in one well. […]

[4] = system: pro-inflammatory cytokines (TNF-α, IL-1β, IL-6, IL-17, iNOS) in SW982 cells; assay: RT-qPCR of LPS-induced pro-inflammatory cytokine expression in SW982 cells; details: 6 hours
Text: Lipopolysaccharide (LPS) was purchased from Sigma-Aldrich (St. Louis, Mo., USA).

[5] = Example 3, CIA mouse joint tissue, Xeljanz 10 mg/kg oral once/day
[6] = LPS 1 ug/ml, 0.5, 1, 10, 100 uM

Row | Structure (SMILES) | Bone surface area/bone volume (mm^−1) Mean (micro-CT) [1] [mm^−1] | Bone volume/tissue volume (%) Mean (micro-CT) [1] [%] | Radiological score Mean (joint destruction, micro-CT) [1] | D23 body weight Mean [2] [g] | D41 body weight Mean [2] [g] | Change of body weight (%, D23 body weight 100%) Mean [2] [%] | ELISA values in Arthritis Paw, IL-1β, Mean [3] [pg/mL] | ELISA values in Arthritis Paw, IL-6, Mean [3] [pg/mL] | ELISA values in Arthritis Paw, IL-17, Mean [3] [pg/mL] | ELISA values in Arthritis Paw, TNF-α, Mean [3] [pg/mL] | MCP-1, ELISA values in Arthritis Paw (pg/mL) Mean [3, 5] [pg/mL] | MIP-2, ELISA values in Arthritis Paw (pg/mL) Mean [3, 5] [pg/mL] | IL-17 protein in arthritis tissue [3, 5] [pg/mL] | TNF-α protein in arthritis tissue [3, 5] [pg/mL] | ELISA values in Serum, IL-6, Mean (IL-6) [pg/mL] | cytokine inhibitory activity, naltrexone compared with 6β-naltrexol [4, 6] | expression of cytokines (iNOS, IL-1β, IL-6, TNF-α) induced by LPS [4, 6] | expression of pro-inflammatory cytokines (TNF-α, IL-1β, IL-6, IL-17, iNOS) increased by LPS ([4]; LPS 1 ug/ml, naltrexone 200 or 500 ug/ml)
1 | C[C@@H]1CCN(C(=O)CC#N)C[C@@H]1N(C)c1ncnc2[nH]ccc12 [Xeljanz ®, Tofacitinib] | 6.52 | 25.27 | 2.08 | 21.7 | 21.6 | 99.6 | 12.68 | 88.6 | 4.57 | 24.52 | 207.9 | 126.8 | 4.57 | 24.52 | 94.5 | – | – | –
2 | CN(Cc1cnc2nc(N)nc(N)c2n1)c1ccc(C(=O)N[C@@H](CCC(=O)O)C(=O)O)cc1 [Methotrexate, methotrexate] | 6.12 | 31.25 | 1.67 | 22.7 | 23.8 | 104.7 | 1.05 | 1.8 | 2.269 | 6.54 | 76.1 | 4.4 | – | – | 39.6 | – | – | –
3 | O=C1CC[C@@]2(O)[C@H]3Cc4ccc(O)c5c4[C@@]2(CCN3CC2CC2)[C@H]1O5 [Naltrexone, 17-(cyclopropylmethyl)-4,5α-epoxy-3,14-dihydroxymorphinan-6-one] | – | – | – | – | – | – | – | – | – | – | – | – | – | – | – | superior cytokine inhibitory activity than the metabolite 6β-naltrexol | suppressed at all concentrations | significantly inhibited
